According to patent US5093231A, “Substrate composition for alkaline phosphatase and method for assay using same” (Becton, Dickinson and Company, priority 1991, dated 1992):

Key:
[1] = system: bovine liver alkaline phosphatase; assay: Potency of the p-bromo analogue relative to levamisole as AP inhibitor; type: biochemical
[2] = Accelerated stability of levamisole (and its p-bromo analogue) in various buffers; functional amount measured by inhibition of bovine liver AP; details: pH 9.8
Protocol: (§1) Various buffers were prepared at 100 mM concentrations, containing 1 mM magnesium chloride, and adjusted to pH 9.8. […] (accelerated decomposition study). […] Bovine liver AP was added and the reaction kinetics were followed at 405 nm.

[3] = system: bovine liver alkaline phosphatase; assay: as above; details: for Percent of Functional Levamisole Remaining: Day 0
Protocol: as §1

[4] = cited from earlier work
AP from the intestine = details: Van Belle, Biochim. et Biophys. Acta., 289, 158 (1972); cited from earlier work

With `Brc1ccc([C@H]2CN3CCSC3=N2)cc1` [p-bromolevamisole] the “fold more potent than levamisole” value [1] was “approximately 10 fold”, the remaining at 72 h, 100 µM ([2]; amp buffer) was 55.4% and the remaining at 216 h, 100 µM ([2]; amp buffer) was 23.9%. The remaining at 408 h, 100 µM ([2]; amp buffer) was 9.6%, the remaining at 72 h, 100 µM ([2]; ampd buffer) was 74% and the remaining at 216 h, 100 µM ([2]; ampd buffer) was 37.3%. It also gave a remaining at 408 h, 100 µM ([2]; ampd buffer) of 18.5%, a remaining at 72 h, 100 µM ([2]; carbonate buffer) of 44.4% and a remaining at 216 h, 100 µM ([2]; carbonate buffer) of 10.8%. It also gave a remaining at 408 h, 100 µM ([2]; carbonate buffer) of 2.62%, a remaining at 72 h, 100 µM ([2]; diethanolamine buffer) of 33.6% and a remaining at 216 h, 100 µM ([2]; diethanolamine buffer) of 1.3%. For the same compound, the remaining at 408 h, 100 µM ([2]; diethanolamine buffer) was 0.53%, the remaining at 72 h, 100 µM ([2]; glycine buffer) was 0.29% and the remaining at 216 h, 100 µM ([2]; glycine buffer) was 0.25%. It also gave a remaining at 408 h, 100 µM ([2]; glycine buffer) of 0%, a remaining at 72 h, 100 µM ([2]; triethanolamine buffer) of 59% and a remaining at 216 h, 100 µM ([2]; triethanolamine buffer) of 22.1%. For the same compound, the remaining at 408 h, 100 µM ([2]; triethanolamine buffer) was 7.86%, the “Percent of Functional Levamisole Remaining” value ([3]; AMP buffer, as in Example I (pH 9.8, 45° C.), 0.1 mM p-bromolevamisole) was 100% and the “Percent of Functional Levamisole Remaining” value ([3]; AMPD buffer, as in Example I (pH 9.8, 45° C.), 0.1 mM p-bromolevamisole) was 100%. The “Percent of Functional Levamisole Remaining” value ([3]; Carbonate buffer, as in Example I (pH 9.8, 45° C.), 0.1 mM p-bromolevamisole) was 100%, the “Percent of Functional Levamisole Remaining” value ([3]; Diethanolamine buffer, as in Example I (pH 9.8, 45° C.), 0.1 mM p-bromolevamisole) was 100% and the “Percent of Functional Levamisole Remaining” value ([3]; Glycine buffer, as in Example I (pH 9.8, 45° C.), 0.1 mM p-bromolevamisole) was 100%. For the same compound, the “Percent of Functional Levamisole Remaining” value ([3]; Triethanolamine buffer, as in Example I (pH 9.8, 45° C.), 0.1 mM p-bromolevamisole) was 100% and the “decomposition compared with the parent compound levamisole” value ([3]; pH 9.8, 45° C., summary of Table II) was “quite a bit faster than the parent compound”.
For `c1ccc([C@H]2CN3CCSC3=N2)cc1` [levamisole, (-)2,3,5,6-tetrahydro-6-phenylimidazo[1,2-b]thiazole], the “decomposition rate at pH 7.9 relative to pH 2” value ([4]; elevated temperature, Dickinson et al., Analyst, 96, 248 (1971)) is listed as 70 times, the “pH of solution at which levamisole hydrolyzes” value ([4]; in solution) is listed as ≥ 4 and the “fold less potent toward AP from the intestine than toward AP from several mammalian tissue types” value (AP from the intestine) is listed as “approximately 100 fold”. The remaining at 72 h, 1000 µM ([2]; amp buffer) was 118%, the remaining at 216 h, 1000 µM ([2]; amp buffer) was 107% and the remaining at 408 h, 1000 µM ([2]; amp buffer) was 87.1%. The remaining at 72 h, 1000 µM ([2]; ampd buffer) was 110%, the remaining at 216 h, 1000 µM ([2]; ampd buffer) was 90.2% and the remaining at 408 h, 1000 µM ([2]; ampd buffer) was 71.7%. The remaining at 72 h, 1000 µM ([2]; carbonate buffer) was 63.8%, the remaining at 216 h, 1000 µM ([2]; carbonate buffer) was 32.1% and the remaining at 408 h, 1000 µM ([2]; carbonate buffer) was 13.7%. It also gave a remaining at 72 h, 1000 µM ([2]; diethanolamine buffer) of 79.8%, a remaining at 216 h, 1000 µM ([2]; diethanolamine buffer) of 9.12% and a remaining at 408 h, 1000 µM ([2]; diethanolamine buffer) of 0.31%. The remaining at 72 h, 1000 µM ([2]; glycine buffer) was 0.08%, the remaining at 216 h, 1000 µM ([2]; glycine buffer) was 0.02% and the remaining at 408 h, 1000 µM ([2]; glycine buffer) was 0%. For the same compound, the remaining at 72 h, 1000 µM ([2]; triethanolamine buffer) was 94.4%, the remaining at 216 h, 1000 µM ([2]; triethanolamine buffer) was 66.6% and the remaining at 408 h, 1000 µM ([2]; triethanolamine buffer) was 37.6%. For the same compound, the “Percent of Functional Levamisole Remaining” value ([3]; AMP buffer 100 mM, 1 mM magnesium chloride, pH 9.8, 45° C., 1 mM levamisole) was 100%, the “Percent of Functional Levamisole Remaining” value ([3]; AMPD buffer 100 mM, 1 mM magnesium chloride, pH 9.8, 45° C., 1 mM levamisole) was 100% and the “Percent of Functional Levamisole Remaining” value ([3]; Carbonate buffer 100 mM, 1 mM magnesium chloride, pH 9.8, 45° C., 1 mM levamisole) was 100%. The “Percent of Functional Levamisole Remaining” value ([3]; Diethanolamine buffer 100 mM, 1 mM magnesium chloride, pH 9.8, 45° C., 1 mM levamisole) was 100%, the “Percent of Functional Levamisole Remaining” value ([3]; Glycine buffer 100 mM, 1 mM magnesium chloride, pH 9.8, 45° C., 1 mM levamisole) was 100% and the “Percent of Functional Levamisole Remaining” value ([3]; Triethanolamine buffer 100 mM, 1 mM magnesium chloride, pH 9.8, 45° C., 1 mM levamisole) was 100%. For the same compound, the “stability of levamisole compared between buffers” value ([3]; pH 9.8, 45° C., summary of Table I) was “substantially greater in AMPD and particularly in AMP than in other buffers”.
